Series [1] relates to Giardia intestinalis. Kind of series: Antigiardial activity against Giardia duodenalis WBC6 trophozoites incubated for 48 hrs under microaerophilic condition by methylene blue colorimetric assay. Type of series: functional, organism-based. The note with it: WBC6, 48 h.
Series [2] concerns Giardia intestinalis. In words: Antigiardial activity against Giardia duodenalis WBC6 trophozoites incubated for 72 hrs under anaerobic condition by resazurin-dye based fluorimetry. The settings on record: WBC6, 72 h. The format is functional, organism-based.
Series [3] has as its system Giardia intestinalis. In words: Growth inhibition of Giardia duodenalis isolate 14-03/F7 measured after 24 hrs by resazurin based assay. The note with it: isolate 14-03/F7, 24 h. Type of series: functional, organism-based. (In general: The colour change of resazurin is a common sign of viable cells or microbes.)
Series [4] concerns Giardia intestinalis. In words: Antigiardial activity against Giardia intestinalis IMSS:0696:1 incubated for 48 hrs followed by wash out by hemocytometric counting method. The settings on record: Giardia duodenalis, IMSS:0696:1, 48 h. The format is functional, organism-based.
For series [5], the system named is Giardia intestinalis. In words: Antigiardial activity against Giardia lamblia WB incubated for 48 hrs by microscopic method. Type of series: functional, organism-based. The note with it: Giardia duodenalis.
The nature of series [6]: Half-life of the compound. Type of series: physicochemical.
The subject of series [7] is Giardia intestinalis. Kind of series: Antigiardial activity against Giardia lamblia P1 incubated for 48 hrs by haemocytometric counting method. Type of series: functional, organism-based. The settings on record: Giardia duodenalis, P1, 48 h.
In series [8] the test system is Giardia intestinalis. In words: Antigiardial activity against Giardia lamblia H/7 incubated for 48 hrs by microscopic method. Type of series: functional, organism-based. The settings on record: Giardia duodenalis, H/7, 48 h.
For series [9], the system named is Giardia intestinalis. Kind of series: Antigiardial activity against Giardia duodenalis BRIS/91/HEPU/1279 incubated for 3 days followed by compound wash-out and measured after 4 days. Type of series: functional. The note with it: time 3 day.
Series [10] has as its system Giardia intestinalis. In words: Antigiardial activity against metronidazole-resistant Giardia duodenalis WB1B-M3 incubated for 3 days followed by compound wash-out and measured after 4 days. The note with it: time 3 day. Type of series: functional.
Series [11] concerns Giardia intestinalis. In words: Antigiardial activity against metronidazole-resistant Giardia duodenalis BRIS/83/HEPU/106-2ID10 incubated for 3 days followed by compound wash-out and measured after 4 days. The format is functional. The note with it: time 3 day.
In series [12] the test system is Giardia intestinalis. Kind of series: Antigiardial activity against Giardia duodenalis BRIS/83/HEPU/106 incubated for 3 days followed by compound wash-out and measured after 4 days. Type of series: functional. The settings on record: time 3 day.
The nature of series [13]: Selectivity ratio of CC50 for human HeLa cells incubated for 2 days by alamarBlue reagent to IC50 for Giardia lamblia BRIS/83/HEPU/106 measured after 48 hrs by BacTiter-Glo cell viability assay. Type of series: toxicity. The settings on record: read-out: Ratio CC50/IC50.
For series [14], the system named is Giardia intestinalis. Kind of series: Antimicrobial activity against Giardia lamblia WB-M2 trophozoites measured after 2 days by BacTiter-Glo cell viability assay. Type of series: functional, organism-based. The note with it: Giardia duodenalis, WB-M2, 48 h.
Series [15] deals with Giardia intestinalis. In words: Antimicrobial activity against Giardia lamblia BRIS/83/HEPU/106 trophozoites measured after 2 days by BacTiter-Glo cell viability assay. Type of series: functional, organism-based. The settings on record: Giardia duodenalis, BRIS/83/HEPU/106, 48 h.
In series [16] the test system is Giardia intestinalis. Kind of series: Antimicrobial activity against Giardia lamblia 713M3 trophozoites measured after 2 days by BacTiter-Glo cell viability assay. Type of series: functional, organism-based. The settings on record: Giardia duodenalis, 713M3, 48 h.
The test system of series [17] is Giardia intestinalis. Kind of series: Antimicrobial activity against Giardia lamblia BRIS/87/HEPU/713 trophozoites measured after 48 hrs by BacTiter-Glo cell viability assay. Type of series: functional, organism-based. The settings on record: Giardia duodenalis, BRIS/87/HEPU/713, 48 h.
A short description of series [18]: Selectivity ratio of CC50 for human HeLa cells incubated for 2 days by alamarBlue reagent to IC50 for Giardia lamblia BRIS/87/HEPU/713 measured after 48 hrs by BacTiter-Glo cell viability assay. The format is toxicity. The note with it: read-out: Ratio CC50/IC50.
Series [19] is described as follows: Selectivity ratio of CC50 for human HeLa cells incubated for 2 days by alamarBlue reagent to IC50 for Giardia lamblia 713M3 measured after 48 hrs by BacTiter-Glo cell viability assay. The settings on record: read-out: Ratio CC50/IC50. The format is toxicity.
A short description of series [20]: Selectivity ratio of CC50 for human HeLa cells incubated for 2 days by alamarBlue reagent to IC50 for Giardia lamblia WB-M2 measured after 48 hrs by BacTiter-Glo cell viability assay. The note with it: time 2 day, read-out: Ratio CC50/IC50. Type of series: toxicity.
Series [21] can be described thus: Selectivity ratio of EC50 for Giardia lamblia 713-M3 trophozoites to EC50 for Giardia lamblia BRIS/87/HEPU/713 trophozoites. The format is functional.
Series [22] can be described thus: Selectivity ratio of EC50 for Giardia lamblia WB-M2 trophozoites to EC50 for Giardia lamblia BRIS/87/HEPU/713 trophozoites. Type of series: functional.
Series [23] relates to Giardia intestinalis. In words: Antigiardial activity against Giardia duodenalis Ah1 incubated for 3 days by fluorescence method. The format is functional, organism-based. The settings on record: Ah1, 72 h.
The subject of series [24] is Giardia intestinalis. Kind of series: Antigiardial activity against Giardia duodenalis Ec1 incubated for 3 days by fluorescence method. Type of series: functional, organism-based. The settings on record: Ec1, 72 h.
In series [25] the test system is Giardia intestinalis. In words: Antigiardial activity against Giardia duodenalis Ac1 incubated for 3 days by fluorescence method. The format is functional, organism-based. The note with it: Ac1, 72 h.
The test system of series [26] is Giardia intestinalis. In words: Antigiardial activity against Giardia duodenalis WB (ATCC 30957) incubated for 3 days by fluorescence method. Type of series: functional, organism-based. The settings on record: WB ATCC 30957, 72 h.
The subject of series [27] is Giardia intestinalis. In words: Antigiardial activity against Giardia duodenalis GS/M-83-H7 (ATCC 50581) incubated for 3 days by fluorescence method. Type of series: functional, organism-based. The note with it: 72 h.
Series [28] has as its system Giardia intestinalis. Kind of series: Antigiardial activity against Giardia duodenalis Ac2 incubated for 3 days by fluorescence method. The format is functional, organism-based. The settings on record: Ac2, 72 h.
Series [29] deals with Giardia intestinalis. Kind of series: Antigiardial activity against Giardia duodenalis G1 incubated for 3 days by fluorescence method. The note with it: G1, 72 h. Type of series: functional, organism-based.
Series [30] relates to Giardia intestinalis. Kind of series: Antigiardial activity against Giardia duodenalis Ah2 incubated for 3 days by fluorescence method. The format is functional, organism-based. The note with it: Ah2, 72 h.
Series [31] relates to Giardia intestinalis. In words: Antigiardial activity against Giardia duodenalis Ec2 incubated for 3 days by fluorescence method. Type of series: functional, organism-based. The note with it: Ec2, 72 h.
In series [32] the test system is Giardia intestinalis. Kind of series: Antigiardial activity against Giardia intestinalis incubated for 48 hrs. Type of series: functional, organism-based. The note with it: Giardia duodenalis.
The subject of series [33] is Giardia intestinalis. Kind of series: Antigiardial activity against Giardia lamblia WB (ATCC 30957) incubated for 3 days by [3H]thymidine incorporation based assay. Type of series: functional, organism-based. The note with it: Giardia duodenalis. On the technique in general: Incorporation of labelled thymidine or its analogues reports DNA synthesis.
The test system of series [34] is Giardia intestinalis. Kind of series: Antigiardial activity against drug susceptible Giardia lamblia incubated for 48 hrs by haemocytometric counting method. The format is functional. The settings on record: Giardia duodenalis, read-out: LD50 (the source's name).
The subject of series [35] is Giardia intestinalis. Kind of series: Antigiardial activity against Giardia lamblia WB incubated for 48 hrs by haemocytometric counting method. The format is functional. The settings on record: Giardia duodenalis, read-out: LD50 (the source's name).
The subject of series [36] is Giardia intestinalis. In words: Antigiardial activity against nitazoxanide resistant Giardia lamblia N1-INP incubated for 48 hrs by haemocytometric counting method. The settings on record: Giardia duodenalis, read-out: LD50 (the source's name). Type of series: functional.

This is an account of results in ChEMBL document CHEMBL4765442, “Anti-Giardia Drug Discovery: Current Status and Gut Feelings” (J Med Chem, 2020).

In brackets after ≈: the same amount, converted by molar mass.

Consider `O=[N+]([O-])c1ccc(SCCCCCCO)c2nonc12`, for which the IC50 was found to be 300 nM in the series on Giardia intestinalis [1] and 600 nM in the series on Giardia intestinalis [2].
Turning to `CCCCCCCCCCC[C@@H](C[C@@H]1OC(=O)[C@H]1CCCCCC)OC(=O)[C@H](CC(C)C)NC=O` [ORLISTAT], the IC50 in the series on Giardia intestinalis [3] turned out to be 2800 nM.
Compound `Cc1ncc([N+](=O)[O-])n1CCOC(=O)Nc1ccc(Cl)cc1` returned an IC50 in the series on Giardia intestinalis [4] of 500 nM.
On the same count and under the same terms, with `Cc1ncc([N+](=O)[O-])n1CC(C)OC(=O)Nc1ccc([N+](=O)[O-])cc1` (stereo unspecified) the figure was 500 nM.
Consider `COC(=O)Nc1nc2ccc(C(=O)c3ccccc3)cc2[nH]1` [MEBENDAZOLE], for which the IC50 in the series with Giardia intestinalis [5], in the series on Giardia intestinalis [7] and in the series on Giardia intestinalis [8] was 60 nM in each case. Also, the half-life in [6] is 2.5 h.
Regarding `Cc1ncc([N+](=O)[O-])n1CC(C)OC(=O)Nc1ccc(Cl)cc1` (stereo unspecified), in the series on Giardia intestinalis [4], half-maximal inhibition (IC50) was put at 500 nM.
Regarding `CN1CC/C(=C\c2ncc([N+](=O)[O-])n2C)C1=O`, the MLC with Giardia intestinalis [9] turned out to be 1 µM (≈ 0.236 µg/mL); in the series on Giardia intestinalis [10], 10 µM (≈ 2.36 µg/mL); in the series with Giardia intestinalis [11] it was 5 µM (≈ 1.18 µg/mL); in the series with Giardia intestinalis [12] it was 1 µM (≈ 0.236 µg/mL).
With `CN(Cc1ccccc1)Cc1cn(CCCCCC(=O)Nc2ncc([N+](=O)[O-])s2)nn1`, the selectivity ratio at 48 h is over 8 in series [13], over 500 in [18], over 8 in series [19] and over 8 in series [20]. Further, the concentration for half-maximal inhibition (IC50) in the series with Giardia intestinalis [14] turned out to be 6500 nM; with Giardia intestinalis [15], 100 nM; in the series on Giardia intestinalis [16], 100 nM; in the series on Giardia intestinalis [17], 100 nM. Moreover, the results for the Ratio EC50 in series [21] and in series [22] were 20 and 65, respectively.
Consider `O=C(CCCCCn1cc(C2CC2)nn1)Nc1ncc([N+](=O)[O-])s1`, for which the selectivity ratio at 48 h in [13] is over 27; in [18], over 500; in series [19], over 27; in [20], over 27. Further, the IC50 in the series on Giardia intestinalis [14] was determined as 1800 nM; in the series on Giardia intestinalis [15], 100 nM; with Giardia intestinalis [16], 100 nM; in the series with Giardia intestinalis [17], 100 nM.
Consider `CCCSc1ccc2nc(NC(=O)OC)[nH]c2c1` [ALBENDAZOLE], for which, in [6], the half-life was 8 h. The IC50 in the series on Giardia intestinalis [23], in the series with Giardia intestinalis [24], in the series on Giardia intestinalis [25], with Giardia intestinalis [26], in the series with Giardia intestinalis [27] and with Giardia intestinalis [28] was 55 nM each time. The IC50 in the series on Giardia intestinalis [29], in the series with Giardia intestinalis [30] and in the series with Giardia intestinalis [31] was 55 nM each time.
For `Cc1ncc([N+](=O)[O-])n1CCO` [METRONIDAZOLE], the half-life in series [6] was 6 h. Moreover, the IC50 with Giardia intestinalis [32] came out at 1000 nM; in the series on Giardia intestinalis [33], 500 nM; in the series on Giardia intestinalis [23], 500 nM; in the series with Giardia intestinalis [24], 500 nM; with Giardia intestinalis [25] it was 500 nM; in the series with Giardia intestinalis [4], 4400 nM. For the same compound, the IC50 in the series with Giardia intestinalis [26], in the series with Giardia intestinalis [27], with Giardia intestinalis [28], with Giardia intestinalis [29], in the series with Giardia intestinalis [30] and with Giardia intestinalis [31] was 500 nM in each case. The compound also returned an IC50 with Giardia intestinalis [3] of 6200 nM. In addition, the MLC with Giardia intestinalis [9] was 50 µM (≈ 8.56 µg/mL); in the series with Giardia intestinalis [10] it was over 500 µM; with Giardia intestinalis [11] it was over 500 µM; with Giardia intestinalis [12], 100 µM (≈ 17.1 µg/mL).
`COc1ccc2[nH]c([S+]([O-])Cc3ncc(C)c(OC)c3C)nc2c1` (stereo unspecified) [OMEPRAZOLE]: the LC50 with Giardia intestinalis [34] was found to be 116 nM; with Giardia intestinalis [35], 116 nM; with Giardia intestinalis [36] it was 544 nM.
In the series with Giardia intestinalis [4], `Cc1ncc([N+](=O)[O-])n1CCOC(=O)NC1CCCCC1` gave an IC50 of 500 nM.
Regarding `CC(=O)Oc1ccccc1C(=O)Nc1ncc([N+](=O)[O-])s1` [NITAZOXANIDE], the half-life in [6] was 7.3 h.
On to `Cc1ncc([N+](=O)[O-])n1CCOC(=O)Nc1ccc([N+](=O)[O-])cc1`, for which the IC50 with Giardia intestinalis [4] was determined as 500 nM.

A word on the IC50: it is the point on the concentration scale where inhibition reaches its midpoint. As a reminder, the half-life is the time in which the quantity being followed falls by half.
